This note sets out measurements from patent US7097848B2, “Synergistic insecticidal mixtures” (Bayer Cropscience AG, priority 2002, dated 2006).

Format in all cases: in vivo
In data set [1] the test system is cotton aphid (Aphis gossypii). As to the kind of experiment: Aphis gossypii test (cotton leaf dip). The settings on record: Table O (Example O); activity found. The source says: (§1) The expected activity for a given combination of two active compounds can be calculated as follows (cf. Carpenter, C. S., “Mammalian Toxicity of 1-naphthyl-N-methylcarbamate [Sevin Insecticide]”, Agricultural and Food Chemistry, Vol. 9, No. 1, pages 30–39, 1961):
(§2) If • Pa is the proportion of active compound A in the mixture, • Pb is the proportion of active compound B in the mixture, • LC50 (or 95)a is the concentration at which 50% (or 95%) of the animals treated with active compound A are killed and • LC50 (or 95)b is the concentration at which 50% (or 95%) of the animals treated with active compound B are killed,
(§3) If the calculated LC50 (or 95) exceeds the value actually obtained and is higher than the confidence interval, the activity of the combination is superadditive, i.e. a synergistic effect exists.
(§4) To produce a suitable preparation of active compound, 1 part by weight of active compound is mixed with the stated amounts of solvent and emulsifier, and the concentrate is diluted with emulsifier-containing water to the desired concentration.
Cotton leaves (Gossypium hirsutum), which are heavily infested by the cotton aphid (Aphis gossypii) are treated by being dipped into the preparation of active compound of the desired concentration.
After the desired period of time, the killed in % is determined. […] The determined kill rates are inserted into Carpenter's formula.

In data set [2] the test system is green peach aphid (Myzus persicae). Kind of data set: Myzus test (cabbage leaf dip). The settings on record: activity found; for LC50 after 6 days: Table B (Example B).
Text: as §1, §2, §3, §4
Cabbage leaves (Brassica oleracea), which are heavily infested by the green peach aphid (Myzus persicae) are treated by being dipped into the preparation of active compound of the desired concentration.
After the desired period of time, the killed in % is determined. 100% means that all aphids have been killed. The determined kill rates are inserted into Carpenter's formula.
After the desired period of time, the killed in % is determined. 100% means that all aphids have been killed; 0% means that none of the aphids have been killed. The determined kill rates are inserted into Carpenter's formula.

The test system of data set [3] is larvae of the mustard beetle (Phaedon cochleariae). As to the kind of experiment: Phaedon larvae test (cabbage leaf dip). To be noted: activity found; for LC50 after 6 days: Table D (Example D).
Text: as §1, §2, §3, §4
Cabbage leaves (Brassica oleracea) are treated by being dipped into the preparation of active compound of the desired concentration and are populated with larvae of the mustard beetle (Phaedon cochleariae) while the leaves are still moist.
After the desired period of time, the kill in % is determined. 100% means that all beetle larvae have been killed; 0% means that none of the beetle larvae have been killed. The determined kill rates are inserted in Carpenter's formula.
(§5) To produce a suitable preparation of active compound, 1 part by weight of active compound is mixed with the stated amounts of solvent emulsifier, and the concentrate is diluted with emulsifier-containing water to the desired concentration.

Data set [4] relates to caterpillars of the diamondback moths (Plutella xylostella, sensitive strain). As to the kind of experiment: Plutella test, sensitive strain (cabbage leaf dip). To be noted: activity found.
Text: as §1, §2, §3, §4
Cabbage leaves (Brassica oleracea) are treated by being dipped into the preparation of active compound of the desired concentration and are populated with caterpillars of the diamondback moths (Plutella xylostella, sensitive strain) while the leaves are still moist.
(§6) After the desired period of time, the kill in % is determined. 100% means that all caterpillars have been killed; 0% means that none of the caterpillars have been killed. The determined kill rates are inserted in Carpenter's formula.
as §5

The test system of data set [5] is Heliothis armigera caterpillars. As to the kind of experiment: Heliothis armigera test (soya bean shoot dip). The settings on record: activity found.
Text: as §1, §2, §3, §4
Soya bean shoots (glycine max) are treated by being dipped into the preparation of active compound of the desired concentration and are populated with Heliothis armigera caterpillars while the leaves are still moist.
After the desired period of time, the kill in % is determined. 100% means that all caterpillars have been killed; 0% means that none of the caterpillars have been killed. The determined kill rates are inserted into Carpenter's formula (see preceding page).
After the desired period of time, the kill in % is determined. 100% means that all caterpillars have been killed; 0% means that none of the caterpillars have been killed. The determined kill rates are inserted into Carpenter's formula.

Data set [6] relates to caterpillars of the armyworm (Spodoptera frugiperda). Kind of data set: Spodoptera frugiperda test (cabbage leaf dip). The settings on record: activity found; for LC95 after 3 days: Table E (Example E).
Text: as §1, §2, §3, §4
Cabbage leaves (Brassica oleracea) are treated by being dipped into the preparation of active compound of the desired concentration and are populated with caterpillars of the armyworm (Spodoptera frugiperda) while the leaves are still moist.
as §6

For data set [7], the system named is caterpillars of the diamondback moths (Plutella xylostella, resistant strain). As to the kind of experiment: Plutella test, resistant strain (cabbage leaf dip). The settings on record: Table M (Example M); activity found.
Text: as §1, §2, §3
To produce a suitable preparation of active compound, 1 part by weight of active compound is mixed with the stated amounts of solvent and emulsifier, and the concentrate is diluted with emulsifier-containing water to the desired concentration. […]
After the desired period of time, the kill in % is determined. […] The determined kill rates are inserted in Carpenter's formula.

As to `CC1(C)[C@H](C(=O)O[C@H](C#N)c2cccc(Oc3ccccc3)c2)[C@@H]1/C=C(\Cl)C(F)(F)F` (racemic) [lambda-cyhalothrin], the “LC95 after 6 days” value in data set [1] is listed as 10.545 ppm; in data set [3] (Table Q (Example Q)), 11.234 ppm; in data set [4] (Table R (Example R)), 0.09 ppm. The “LC95 after 1 day” value in data set [2] (Table P (Example P)) is recorded as 11.234 ppm.

As to `CC[C@H](C)[C@H]1O[C@]2(C=C[C@@H]1C)C[C@@H]1C[C@@H](C/C=C(\C)[C@@H](O[C@H]3C[C@H](OC)[C@@H](O[C@H]4C[C@H](OC)[C@@H](O)[C@H](C)O4)[C@H](C)O3)[C@@H](C)/C=C/C=C3\CO[C@@H]4[C@H](O)C(C)=C[C@@H](C(=O)O1)[C@]34O)O2` [avermectin], the “LC95 after 6 days” value in data set [3] (Table G (Example G)) is listed as 1.431 ppm. In addition, in data set [5] (Table F (Example F)), the “LC50 after 6 days” value is recorded as 0.094 ppm.

In the case of `CN/C(=N\[N+](=O)[O-])NCc1cnc(Cl)s1` [clothianidin], the “LC95 after 6 days” value was found to be 4.954 ppm in data set [1]; 11.234 ppm in data set [3] (Table G (Example G)); 17.504 ppm in data set [3] (Table K (Example K)); 7.690 ppm in data set [3] (Table Q (Example Q)); 42.493 ppm in data set [4] (Table C (Example C)); 9.045 ppm in data set [4] (Table L (Example L)). For the same compound, the “LC95 after 6 days” value in data set [4] (Table R (Example R)) is 28.46 ppm. For the same compound, the “LC50 after 6 days” value in data set [2] amounted to 1.013 ppm; in data set [3] it was 6.708 ppm; in data set [6] (Table I (Example I)), 2.450 ppm; in data set [6] (Table N (Example N)), 0.178 ppm; in data set [7], 27.271 ppm; in data set [5] (Table A (Example A)) it was 0.997 ppm. The “LC50 after 6 days” value in data set [5] (Table F (Example F)) was determined as 15.0 ppm; in data set [5] (Table J (Example J)), 3.527 ppm. The “LC95 after 1 day” value worked out at 5.988 ppm in data set [2] (Table H (Example H)) and 1.303 ppm in data set [2] (Table P (Example P)). Moreover, the “LC95 after 3 days” value in data set [6] is recorded as 6.099 ppm.

Consider `CNC(=O)Oc1cc(C)c(SC)c(C)c1` [methiocarb], for which the “LC95 after 1 day” value in data set [2] (Table H (Example H)) turned out to be 75.000 ppm. Moreover, the “LC50 after 6 days” value in data set [6] (Table I (Example I)) is reported as 51.649 ppm.

As to `CC1(C)C(C=C(Cl)Cl)C1C(=O)OC(C#N)c1ccc(F)c(Oc2ccccc2)c1` (stereo not drawn) [β-cyfluthrin], the “LC50 after 6 days” value in data set [2] came to 2.583 ppm; in data set [3] it was 0.646 ppm; in data set [5] (Table A (Example A)), 0.159 ppm. Further, the “LC95 after 6 days” value in data set [4] (Table C (Example C)) is recorded as 0.699 ppm. Further, the “LC95 after 3 days” value in data set [6] was 1.113 ppm.

In the case of emamectin benzoate, the “LC95 after 6 days” value in data set [3] (Table K (Example K)) stood at 0.072 ppm; in data set [4] (Table L (Example L)), 0.0009 ppm. For the same compound, the entries for the “LC50 after 6 days” value in data set [6] (Table N (Example N)), in data set [7] and in data set [5] (Table J (Example J)) were 0.003 ppm, 0.0012 ppm and 0.007 ppm, respectively.
